From patent EP1493444A1, “Pharmaceutical composition used as anti-infective of the upper respiratory tract” (priority 2003, dated 2005)

Tested on: muqueuse
Experiment: Comparative acute in vivo toxicity (mucosal irritation, C20)
Design: species or system lapin
Details: for concentration théorique provoquant une irritation de la muqueuse moyenne identique (C20): rabbit, in vivo
From the text: Enfin, une autre expérience a encore consisté à comparer la toxicité aiguë in vivo du polihexanide avec celle d'autres composés.
A cet effet, la toxicité du polihexanide a été comparée in vivo chez le lapin à celle du digluconate de chlorhexidine, et à celle de trois chlorures de benzyldiméthylalkylammonium.
Pour chacune des substances étudiées, une concentration théorique provoquant une irritation de la muqueuse moyenne identique (C20) a été déterminée.
Ces concentrations sont respectivement : • 0,25 g % pour le chlorure de benzalkonium • 0,28 g % pour le chlorure de benzyldiméthyldodecylammonium • 0,32 g % pour le chlorure de benzyldiméthylhexadecylanmonium • 0,54 g % pour le digluconate de chlorhexidine • 12,2 g % pour le polihexanide.
Ces valeurs montrent par conséquent, que le polihexanide est beaucoup moins toxique pour la muqueuse que les autres composés testés, puisque sa valeur C20 est 22 fois supérieure à celle de la chlorhexidine et 44 fois plus élevée que la valeur moyenne des chlorures de benzalkonium.

Compound	concentration théorique provoquant une irritation de la muqueuse moyenne identique (C20)	valeur C20 supérieure à celle de la chlorhexidine (ratio of C20 values, versus chlorhexidine) [fois]	valeur C20 plus élevée que la valeur moyenne des chlorures de benzalkonium (ratio of C20 values, versus the mean of the benzalkonium chlorides) [fois]
polihexanide	12,2 g %	22	44
[H]/N=C(\N/C(=N/[H])NCCCCCCNC(=N)NC(=N)Nc1ccc(Cl)cc1)Nc1ccc(Cl)cc1 [digluconate de chlorhexidine]	0,54 g %		
CCCCCCCCCCCCCCCC[N+](C)(C)Cc1ccccc1 [chlorure de benzyldiméthylhexadecylanmonium]	0,32 g %		
CCCCCCCCCCCC[N+](C)(C)Cc1ccccc1 [chlorure de benzyldiméthyldodecylammonium]	0,28 g %		
CCCCCCCCCCCCC[N+](C)(C)Cc1ccccc1 [chlorure de benzalkonium]	0,25 g %		
